Assay: xn = mol fraction of the nth substance listed
Conditions: Liquid, pressure decay method, x1 = 0

FC(F)C(F)(F)F [pentafluoroethane] + CCCCCCn1cc[n+](C)c1.F[B-](F)(F)F
binary diffusion coefficient (303.2 K, 151.8 kPa): 6.3e-11 m2/s | binary diffusion coefficient (313.2 K, 164 kPa): 1.24e-10 m2/s | binary diffusion coefficient (323.2 K, 169.7 kPa): 2.16e-10 m2/s | binary diffusion coefficient (333.2 K, 176.2 kPa): 2.95e-10 m2/s | binary diffusion coefficient (343.2 K, 172.3 kPa): 3.66e-10 m2/s

— the NIST ThermoML archive (doi:10.1016/j.jct.2017.04.009)
